According to patent US20230348362A1, “LIPID COMPOUNDS AND LIPID NANOPARTICLE COMPOSITIONS” (Suzhou Abogen Biosciences Co., Ltd., priority 2021, published 2023):

What was measured:
[1] = Lipid nanoparticle size and polydispersity by dynamic light scattering; assay type: physicochemical; settings: LNP of lipid/DSPC/cholesterol/PEG-lipid 50:10:38.5:1.5 encapsulating hEPO mRNA
Description: (§1) Briefly, a cationic lipid provided herein, DSPC, cholesterol, and PEG-lipid were solubilized in ethanol at a molar ratio of 50:10:38.5:1.5, and mRNA were diluted in 10 to 50 mM citrate buffer, pH=4. The LNPs were prepared at a total lipid to mRNA weight ratio of approximately 10:1 to 30:1 by mixing the ethanolic lipid solution with the aqueous mRNA solution at a volume ratio of 1:3 using a microfluidic apparatus, total flow rate ranging from 9-30 mL/min. Ethanol were thereby removed and replaced by DPBS using dialysis. Finally, the lipid nanoparticles were filtered through a […] sterile filter.
(§2) Lipid nanoparticle size were determined by dynamic light scattering using a Malvern Zetasizer Nano ZS (Malvern UK) using a […] backscatter detection mode. The encapsulation efficiency of lipid nanoparticles were determined using a Quant-it Ribogreen RNA quantification assay kit (Thermo Fisher Scientific, UK) according to the manufacturer's instructions.

[2] = Encapsulation efficiency of lipid nanoparticles, Quant-it Ribogreen RNA assay; assay type: physicochemical; settings: LNP of lipid/DSPC/cholesterol/PEG-lipid 50:10:38.5:1.5 encapsulating hEPO mRNA
Description: as §1, §2

| Compound | polydispersity [1] | size (nm) [1] [nm] | Encapsulation Efficiency [2] [%] |
| --- | --- | --- | --- |
| CCCCCCCCC(CCCCCCCC)CNC(=O)CCCCCN1CCC(N(CCO)CCCCCC(=O)OCC(CCCCCCCC)CCCCCCCC)CC1 [Compound 171] | 0.076 | 76.26 | 96.23 |
| CCCCCCCCC(CCCCCC)CNC(=O)CCCCCN(CCCCN(CCO)CCCCC(COC(=O)CCCCCCC)COC(=O)CCCCCCC)C1CCCCC1 (stereo not drawn) [Compound 197] | 0.158 | 70.01 | 91.45 |
| CCCCCCCCC(CCCCCCCC)CNC(=O)CCCCCN(CCO)CCN(CCCCCC(=O)NCC(CCCCCCCC)CCCCCCCC)C1CCCCCC1 [Compound 14] | 0.118 | 60.06 | 89.8 |
| CCCCCCCCCCCC(=O)OCCCCCN(CCN(CCO)CCCCCOC(=O)CC(CCCCCCCC)CCCCCCCC)C1CCCC1 [Compound 93] | 0.064 | 76.12 | 92.84 |
| CCCCCCCCC(CCCCCC)CNC(=O)CCCCCN(CCO)CCN(CCCCC(COC(=O)CCCCCCC)COC(=O)CCCCCCC)C1CCCCC1 (stereo not drawn) [Compound 140] | 0.051 | 71.01 | 89.74 |
| CCCCCCCCCCCOC(=O)CCCCCN(CCN(CCO)CCCCCC(=O)OCC(CCCCCCCC)CCCCCCCC)C1CCC1 [Compound 106] | 0.067 | 67.63 | 92.14 |
| CCCCCCCCC(CCCCCC)COC(=O)CCCCCN(CCO)CCN(CCCCCC(=O)OCC(CCCCCC)CCCCCCCC)C1CC1 (stereo not drawn) [Compound 9] | 0.181 | 55.12 | 93.9 |
| CCCCCCCCCOC(=O)CCCCCCCN(CCO)C1CCN(CCCCCCCC(=O)OC(CCCCCCCC)CCCCCCCC)CC1 [Compound 176] | 0.123 | 65.70 | 95.27 |
| CCCCCCCCCCCOC(=O)CCCCCN(CCN(CCO)CCCCCC(=O)OCC(CCCCCC)CCCCCCCC)C1CCCCC1 (stereo not drawn) [Compound 6] | 0.089 | 101.6 | 87.7 |
| CCCCCCCCCCCOC(=O)CCCCCN(CCN(CCO)CCCCCC(=O)OCC(CCCCCCCC)CCCCCCCC)C1CC1 [Compound 129] | 0.069 | 58.08 | 90.52 |
| CCCCCCCCCCCOC(=O)CCCCCN(CC=C(C)C)CCN(CCCCCC(=O)OCC(CCCCCCCC)CCCCCCCC)C1CCC(O)CC1 (stereo not drawn) [Compound 125] | 0.035 | 90.98 | 92.89 |
| CCCCCCCCCCCOC(=O)CCCCCN(CC=C(C)C)CCN(CCO)CCCCCC(=O)OCC(CCCCCCCC)CCCCCCCC [Compound 119] | 0.087 | 69.75 | 92.21 |
| CCCCCCCCCCCC(=O)OCCCCCN(CCN(CCO)CCOCCOC(=O)CC(CCCCCCCC)CCCCCCCC)C1CCCCC1 [Compound 98] | 0.042 | 91.85 | 89.31 |
| CCCCCCCCCCCOC(=O)CCCCCN(CCN(CCO)CCCCCC(=O)OCC(CCCCCCCC)CCCCCCCC)C1CCCC1 [Compound 130] | 0.060 | 76.86 | 91.06 |
| CCCCCCCCCCCOC(=O)CCCCCN1CCC(N(CCO)CCCCCC(=O)OCC(CCCCCCCC)CCCCCCCC)CC1 [Compound 173] | 0.068 | 61.61 | 95.29 |
| CCCCCCCCCCCOC(=O)CCCCCN(CCN(CCO)CCCCCC(=O)NCC(CCCCCCCC)CCCCCCCC)C1CCCCC1 [Compound 44] | 0.081 | 77.48 | 92.6 |
| CCCCCCCCCCCOC(=O)CCCCCN1CCC(N(CCO)CCCCCCCC(=O)OC(CCCCCCCC)CCCCCCCC)CC1 [Compound 174] | 0.063 | 78.27 | 91.79 |

| Compound | polydispersity [1] | size (nm) [1] [nm] | Encapsulation Efficiency [2] [%] |
| --- | --- | --- | --- |
| CCCCCCCCC(CCCCCCCC)COC(=O)CCCCCN(CCO)Cc1ccc(CN(CCCCCC(=O)OCC(CCCCCCCC)CCCCCCCC)C2CCC2)cc1 [Compound 88] | 0.080 | 71.00 | 92.56 |
| CCCCCCCC(=O)OCC(CCCCN(CCO)CCN(CCCCC(COC(=O)CCCCCCC)COC(=O)CCCCCCC)C1CCCCCC1)COC(=O)CCCCCCC [Compound 160] | 0.096 | 86.16 | 86.18 |
| CCCCCCCCCCCCCCCCOC(=O)CCCCCN(CCN(CCO)CCCCCC(=O)OCC(CCCCCCCC)CCCCCCCC)C1CCCCC1 [Compound 104] | 0.044 | 66.62 | 92.43 |
| CCCCCCCCCCCCCCOCC(CN(CCN(CCO)CCCCCC(=O)OCC(CCCCCCCC)CCCCCCCC)C1CCC1)OCCCCCCCC (stereo not drawn) [Compound 20] | 0.015 | 74.98 | 95.8 |
| CCCCCCCCC(CCCCCCCC)CNC(=O)CCCCCN(CCO)CCN(CCCCCC(=O)NCC(CCCCCCCC)CCCCCCCC)C1CCC1 [Compound 11] | 0.055 | 66.15 | 82.8 |
| CCCCCCCCC(CCCCCC)CNC(=O)CCCCCN(CC=C(C)C)CCN(CCO)CCCCC(COC(=O)CCCCCCC)COC(=O)CCCCCCC (stereo not drawn) [Compound 149] | 0.043 | 78.75 | 92.71 |
| CCCCCCCCCCCOC(=O)CCOCCN(CCN(CCO)CCOCCC(=O)OCC(CCCCCCCC)CCCCCCCC)C1CCCCC1 [Compound 117] | 0.050 | 79.67 | 89.34 |
| CCCCCCCCCCCCC(O)CN(CCCCCC(=O)OCC(CCCCCC)CCCCCCCC)CCN(CCCCCC(=O)OCCCCCCCCCCC)C1CCC1 (stereo not drawn) [Compound 2] | 0.066 | 64.03 | 86.6 |
| CCCCCCCCC(CCCCCC)CNC(=O)CCCCCN(CCO)CCN(CCCCC(COC(=O)CCCCCCC)COC(=O)CCCCCCC)C1CCCCCCC1 (stereo not drawn) [Compound 145] | 0.047 | 68.91 | 88.63 |
| CCCCCCCCC(CCCCCCCC)CC(=O)NCCCCCN(CCN(CCO)CCCCCOC(=O)CC(CCCCCCCC)CCCCCCCC)C1CCCCCCC1 [Compound 75] | 0.037 | 76.62 | 92.59 |
| CCCCCCCCC(CCCCCC)C(=O)OCCCCCCN(CCO)CCN(CCCCCCOC(=O)C(CCCCCC)CCCCCCCC)C1CCC1 (stereo not drawn) [Compound 69] | 0.096 | 60.99 | 88.86 |
| CCCCCCCCC(CCCCCC)CNC(=O)CCN(CCO)CCN(CCCCC(COC(=O)CCCCCCC)COC(=O)CCCCCCC)C1CCCCC1 (stereo not drawn) [Compound 211] | 0.035 | 112.6 | 84.88 |
| CCCCCCCCCCCOC(=O)CCCCCN(CCN(CCO)CCOCCC(=O)OCC(CCCCCCCC)CCCCCCCC)C1CCCCC1 [Compound 115] | 0.058 | 97.51 | 90.22 |
| CCCCCCCCCCCOC(=O)CCCCCN(CCN(CCO)CCOCCC(=O)OCC(CCCCCCCC)CCCCCCCC)C1CCC1 [Compound 114] | 0.044 | 81.25 | 90.35 |
| CCCCCCCCCCCOC(=O)CCCCCN(CCN(CCO)CCCCCC(=O)N(CCCCCCCC)CCCCCCCC)C1CCCCC1 [Compound 90] | 0.030 | 101.70 | 82.56 |
| CCCCCCCCC(CCCCCC)CNC(=O)CCCCCN(C)CCN(CCO)CCCCC(COC(=O)CCCCCCC)COC(=O)CCCCCCC (stereo not drawn) [Compound 158] | 0.058 | 63.54 | 89.17 |
| CCCCCCCCC(CCCCCC)CNC(=O)CCCCCN(CCO)CCN(CCCCC(COC(=O)CCCCCCC)COC(=O)CCCCCCC)C1CCCC1 (stereo not drawn) [Compound 138] | 0.107 | 81.24 | 90.03 |
